Consider 20 compounds from patent US20140107109A1, “AMINO-DIHYDROTHIAZINE AND AMINO-DIOXIDO DIHYDROTHIAZINE COMPOUNDS AS BETA-SECRETASE ANTAGONISTS AND METHODS OF USE” (Amgen Inc., priority 2012, published 2014).

Read-outs that look alike come from different tables or passages of the source.

The target in assay [1] is Beta Secretase enzyme (BACE1) (Homo sapiens, UniProt P56817). Nature of the assay: In vitro enzymatic BACE FRET assay. The class given is biochemical. The note with it: read-out: BACE1 FRET assay IC50. The method in brief: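 Readout: dequenched fluorescence (ex 488 nm/[…]) after neutralizing with Tris buffer. Reactions, begun by adding 50 nM quenched peptide substrate spanning the BACE cleavage site, were incubated one hour at pH 4.2 in 0.05 M acetate with 100 uM genapol and 10% final DMSO.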

The next assay concerns the target T1, Cathepsin D (Cat D) (Homo sapiens, UniProt P07339).
T1 construct: Recombinant Cat D was expressed in CHO cells; made in house; host or cells: CHO cells
Nature of the assay: In vitro enzymatic Cathepsin D (Cat D) FRET assay. The class given is biochemical. To be noted: read-out: CatD IC50. In a few lines:
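FRET read-out: a fluorophore/quencher-labelled peptide substrate is cleaved by 9 nM Cat D (recombinant, CHO-expressed) following a one-hour preincubation with inhibitor dilutions in DMSO. Tris buffer added to neutralize pH ends the reaction before fluorescence measurement.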

Assay [2] concerns Aβ40 in conditioned medium of cells stably expressing Amyloid Precursor Protein (APP). Briefly: In vitro BACE cell-based assay (HEK cell assay), Aβ40 sandwich ELISA. To be noted: Homo sapiens, HEK293. In a few lines:
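Aβ40 in conditioned medium was quantified by time-resolved fluorescence sandwich ELISA (pAb40 capture 3 h at 4 °C, biotin-6E10 detection 2 h at 4 °C) after 24 h compound exposure of APP-expressing cells. Doses spanned 10 points from 100 μM or 10 μM top, 0.1% DMSO; IC50 was derived from percent of control.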

T1 sequence (P07339 65-412, species assumed): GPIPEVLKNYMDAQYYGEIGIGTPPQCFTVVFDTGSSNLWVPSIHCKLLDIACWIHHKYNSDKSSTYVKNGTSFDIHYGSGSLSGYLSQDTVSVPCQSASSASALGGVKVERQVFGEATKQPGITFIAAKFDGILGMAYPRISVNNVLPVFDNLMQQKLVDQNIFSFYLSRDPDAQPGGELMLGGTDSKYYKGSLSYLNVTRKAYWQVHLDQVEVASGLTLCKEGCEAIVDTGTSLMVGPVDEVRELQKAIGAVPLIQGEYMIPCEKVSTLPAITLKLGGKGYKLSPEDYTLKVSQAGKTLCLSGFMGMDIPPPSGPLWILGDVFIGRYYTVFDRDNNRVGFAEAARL
Sequence of Beta Secretase enzyme (BACE1) (P56817 46-501): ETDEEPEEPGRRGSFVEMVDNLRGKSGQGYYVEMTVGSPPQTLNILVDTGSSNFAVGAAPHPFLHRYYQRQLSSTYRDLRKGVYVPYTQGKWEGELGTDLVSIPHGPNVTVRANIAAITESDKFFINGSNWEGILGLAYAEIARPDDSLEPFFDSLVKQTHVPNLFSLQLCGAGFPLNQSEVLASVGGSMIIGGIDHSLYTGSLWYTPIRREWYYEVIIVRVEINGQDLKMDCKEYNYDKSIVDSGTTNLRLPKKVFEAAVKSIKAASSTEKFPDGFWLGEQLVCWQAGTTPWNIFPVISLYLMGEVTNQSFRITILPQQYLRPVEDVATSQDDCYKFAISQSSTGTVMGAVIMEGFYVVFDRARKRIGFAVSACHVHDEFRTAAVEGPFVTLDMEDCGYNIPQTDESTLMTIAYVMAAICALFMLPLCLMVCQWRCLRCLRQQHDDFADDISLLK

For the compound `C#Cc1cnc(Nc2ccc(F)c([C@]3(C)CS(=O)(=O)C(C)(C)C(N)=N3)c2)c2ncc(Cl)cc12` [Example 190, (R)-5-amino-3-(5-((3-chloro-5-ethynyl-1,7-naphthyridin-8-yl)amino)-2-fluorophenyl)-3,6,6-trimethyl-3,6-dihydro-2H-1,4-thiazine 1,1-dioxide], the concentration for half-maximal inhibition (IC50) in assay [1] (average IC50, enzyme assay) amounted to 1.3 nM; at Cathepsin D (Cat D), 63900 nM; in assay [2] (average IC50, cell assay), 44.8 nM.
Take `Cc1cc(C(F)F)cnc1C(=O)Nc1ccc(F)c([C@@]2(C)N=C(N)C3(CC3)S(=O)(=O)[C@H]2F)c1` [Example 207, N-(3-((5R,6R)-8-amino-5-fluoro-6-methyl-4,4-dioxido-4-thia-7-azaspiro[2.5]oct-7-en-6-yl)-4-fluorophenyl)-5-(difluoromethyl)-3-methyl-2-pyridinecarboxamide]: the concentration for half-maximal inhibition (IC50) came out at 0.92 nM in assay [1] (average IC50); 56100 nM on Cathepsin D (Cat D); 6.7 nM in assay [2] (average IC50, HEK cells).
As to `COc1cnc(C(=O)Nc2ccc(F)c([C@@]3(C)N=C(N)C(C)(C)S(=O)(=O)C3F)c2)c(Cl)c1` (stereo partly drawn) [Example 336, N-(3-((3R)-5-amino-2-fluoro-3,6,6-trimethyl-1,1-dioxido-3,6-dihydro-2H-1,4-thiazin-3-yl)-4-fluorophenyl)-3-chloro-5-methoxy-2-pyridinecarboxamide], the IC50 is 1.4 nM in assay [1] (average IC50, enzyme assay); 533000 nM on Cathepsin D (Cat D); 5.3 nM in assay [2] (average IC50, HEK cell assay).
In the same order, the values of `CC1(C)C(N)=N[C@](C)(c2cc(NC(=O)c3ncc(C(F)F)cc3Cl)cnc2F)CS1(=O)=O` [Example 348, N-(5-((3R)-5-amino-3,6,6-trimethyl-1,1-dioxido-3,6-dihydro-2H-1,4-thiazin-3-yl)-6-fluoro-3-pyridinyl)-3-chloro-5-(difluoromethyl)-2-pyridinecarboxamide] are 5.89 nM, 490000 nM and 9.92 nM.
For `CC1(C)C(N)=N[C@](CF)(c2cc(NC(=O)c3ncc(Cl)cc3F)ccc2F)CS1(=O)=O` [Example 409, N-(3-((3S)-5-amino-3-(fluoromethyl)-6,6-dimethyl-1,1-dioxido-3,6-dihydro-2H-1,4-thiazin-3-yl)-4-fluorophenyl)-5-chloro-3-fluoro-2-pyridinecarboxamide], the 50% inhibitory concentration (IC50) in assay [1] amounted to 0.6 nM; at Cathepsin D (Cat D), 363000 nM; in assay [2], 3.7 nM.
With `COc1cnc(C(=O)Nc2ccc(F)c([C@]3(C(F)F)CS(=O)(=O)C(C)(C)C(N)=N3)c2)cn1` [Example 36, (S)—N-(3-(5-amino-3-(difluoromethyl)-6,6-dimethyl-1,1-dioxido-3,6-dihydro-2H-1,4-thiazin-3-yl)-4-fluorophenyl)-5-methoxypyrazine-2-carboxamide], the IC50 is 20.2 nM in assay [1]; more than 400000 nM on Cathepsin D (Cat D); 765 nM in assay [2] (Aβ40, 24 h incubation).
As for `CC1(C)C(N)=N[C@](C)(c2cc(Nc3ncc(F)c4cc(Cl)cnc34)ccc2F)CS1(=O)=O` [Example 49, N-(3-((3R)-5-amino-3,6,6-trimethyl-1,1-dioxido-3,6-dihydro-2H-1,4-thiazin-3-yl)-4-fluorophenyl)-3-chloro-5-fluoro-1,7-naphthyridin-8-amine], the 50% inhibitory concentration (IC50) in assay [1] amounted to 0.56 nM; at Cathepsin D (Cat D), 27100 nM; in assay [2] (Aβ40, 24 h incubation), 15.1 nM.
The matching figures for `Cc1cc(Cl)cnc1C(=O)Nc1ccc(F)c([C@]2(C)CS(=O)(=O)C(C)(C)C(N)=N2)c1` [Example 25, N-(3-((3R)-5-amino-3,6,6-trimethyl-1,1-dioxido-3,6-dihydro-2H-1,4-thiazin-3-yl)-4-fluorophenyl)-5-chloro-3-methyl-2-pyridinecarboxamide]: 0.3 nM, 263000 nM and 3.2 nM.
On to `CC1(C)C(N)=N[C@](C)(c2cc(NC(=O)N3CC=CCC3)ccc2F)CS1(=O)=O` [Example 160, (R)—N-(3-(5-amino-3,6,6-trimethyl-1,1-dioxido-3,6-dihydro-2H-1,4-thiazin-3-yl)-4-fluorophenyl)-5,6-dihydropyridine-1(2H)-carboxamide], for which the 50% inhibitory concentration (IC50) in assay [1] (average IC50, enzyme assay) was 575 nM; at Cathepsin D (Cat D) it was more than 14800 nM; in assay [2] (average IC50, cell assay) it was 681 nM.
In the case of `COc1ccc(C(=O)Nc2ccc(F)c([C@]3(C)CS(=O)(=O)C(C)(C)C(N)=N3)c2)nc1` [Example 22, N-(3-((3R)-5-amino-3,6,6-trimethyl-1,1-dioxido-3,6-dihydro-2H-1,4-thiazin-3-yl)-4-fluorophenyl)-5-methoxy-2-pyridinecarboxamide], the IC50 is 1.5 nM in assay [1]; more than 400000 nM on Cathepsin D (Cat D); 3.1 nM in assay [2] (Aβ40, 24 h incubation).
In the same order, the values of `COc1cnc2c(Nc3ccc(F)c([C@@]4(C(F)(F)F)CS(=O)(=O)C(C)(C)C(N)=N4)c3)nccc2c1` [Example 64, N-(3-((3R)-5-amino-6,6-dimethyl-1,1-dioxido-3-(trifluoromethyl)-3,6-dihydro-2H-1,4-thiazin-3-yl)-4-fluorophenyl)-3-methoxy-1,7-naphthyridin-8-amine] are 8690 nM, more than 400000 nM and more than 10000 nM.
Take `CC1(C)C(N)=N[C@](CF)(c2cc(Nc3nccc4cc(Cl)cnc34)ccc2F)CS1(=O)=O` [Example 448, N-(3-((3S)-5-amino-3-(fluoromethyl)-6,6-dimethyl-1,1-dioxido-3,6-dihydro-2H-1,4-thiazin-3-yl)-4-fluorophenyl)-3-chloro-1,7-naphthyridin-8-amine]: the concentration for half-maximal inhibition (IC50) in assay [1] (average IC50, enzyme assay) worked out at 0.37 nM; on Cathepsin D (Cat D), 58400 nM; in assay [2] (average IC50, cell assay) it was 28.5 nM.
`Cc1ccnc(Oc2ccc(F)c([C@]3(C)CS(=O)(=O)C(C)(C)C(N)=N3)c2)c1` [Example 264, (5R)-5-(2-fluoro-5-((4-methyl-2-pyridinyl)oxy)phenyl)-2,2,5-trimethyl-5,6-dihydro-2H-1,4-thiazin-3-amine 1,1-dioxide]: the IC50 was 180 nM in assay [1] (average IC50, enzyme assay); 878000 nM on Cathepsin D (Cat D); 126 nM in assay [2] (average IC50, cell assay).
Turning to `CC1(C)C(N)=N[C@](C)(c2cc(Nc3ncnc4cc(C#N)cnc34)cnc2F)CS1(=O)=O` [Example 384, 4-((5-((3R)-5-amino-3,6,6-trimethyl-1,1-dioxido-3,6-dihydro-2H-1,4-thiazin-3-yl)-6-fluoro-3-pyridinyl)amino)pyrido[3,2-d]pyrimidine-7-carbonitrile], the half-maximal inhibitory concentration (IC50) in assay [1] was determined as 6.36 nM; on Cathepsin D (Cat D), 47300 nM; in assay [2] it was 23.9 nM.
As to `COc1ccc(C)cc1Oc1ccc(F)c([C@]2(C)CS(=O)(=O)C(C)(C)C(N)=N2)c1` [Example 101, (R)-5-amino-3-(2-fluoro-5-(2-methoxy-5-methylphenoxy)phenyl)-3,6,6-trimethyl-3,6-dihydro-2H-1,4-thiazine 1,1-dioxide], the IC50 was 15200 nM in assay [1]; 194000 nM on Cathepsin D (Cat D); more than 10000 nM in assay [2] (Aβ40, 24 h incubation).
Take `C[C@]1(F)C(N)=N[C@](C)(c2cc(NC(=O)c3ncc(C#N)cc3Cl)ccc2F)CS1(=O)=O` [Example 327, N-(3-((3R,6R)-5-amino-6-fluoro-3,6-dimethyl-1,1-dioxido-3,6-dihydro-2H-1,4-thiazin-3-yl)-4-fluorophenyl)-3-chloro-5-cyano-2-pyridinecarboxamide]: the IC50 in assay [1] (average IC50, enzyme assay) was 0.74 nM; at Cathepsin D (Cat D), more than 400000 nM; in assay [2] (average IC50, HEK cell assay) it was 20.4 nM.
Consider `COc1cnc2c(Nc3ccc(F)c([C@@]4(C)N=C(N)C5(CC5)S(=O)(=O)[C@H]4F)c3)nccc2n1` [Example 208, N-(3-((5R,6R)-8-amino-5-fluoro-6-methyl-4,4-dioxido-4-thia-7-azaspiro[2.5]oct-7-en-6-yl)-4-fluorophenyl)-2-methoxypyrido[3,4-b]pyrazin-5-amine], for which the IC50 in assay [1] (average IC50) was less than 2 nM; on Cathepsin D (Cat D), 696000 nM; in assay [2] (average IC50, HEK cells), 10.7 nM.
Take `Cc1cc(C(F)F)cnc1C(=O)Nc1ccc(F)c([C@]2(CF)CS(=O)(=O)C3(CCC3)C(N)=N2)c1` [Example 369, N-(3-((7S)-9-amino-7-(fluoromethyl)-5,5-dioxido-5-thia-8-azaspiro[3.5]non-8-en-7-yl)-4-fluorophenyl)-5-(difluoromethyl)-3-methyl-2-pyridinecarboxamide]: the figures for the IC50 (in assay [1]; on Cathepsin D (Cat D); in assay [2]) were 1.4 nM, 233000 nM and 12.3 nM, respectively.
Turning to `CC#CCOc1cnc2c(Nc3ccc(F)c([C@]4(C)CS(=O)(=O)[C@@](C)(F)C(N)=N4)c3)nccc2c1` [Example 226, N-(3-((3R,6R)-5-amino-6-fluoro-3,6-dimethyl-1,1-dioxido-3,6-dihydro-2H-1,4-thiazin-3-yl)-4-fluorophenyl)-3-(2-butyn-1-yloxy)-1,7-naphthyridin-8-amine], the concentration for half-maximal inhibition (IC50) in assay [1] (average IC50, enzyme assay) is 0.74 nM; on Cathepsin D (Cat D), more than 400000 nM; in assay [2] (average IC50, cell assay) it was 5.74 nM.
Regarding `COc1cnc(C(=O)Nc2ccc(F)c([C@]3(C)CS(=O)(=O)[C@](C)(F)C(N)=N3)c2)cn1` [Example 176], the half-inhibitory concentration (IC50) in assay [1] (average IC50) turned out to be 2.8 nM; at Cathepsin D (Cat D), 650000 nM; in assay [2] (average IC50, HEK cells), 254 nM.
